The target of this assay is T1, hSTING (Homo sapiens, UniProt Q86WV6, G230A/H232R/R293Q/R71H).
T1 construct: host or cells: THP1-Dual KO-IFNAR2 cells
The experiment in a line: STING reporter assay (luciferase) in THP1-Dual KO-IFNAR2 cells stimulated with 2'3'cGAMP. The conditions noted are these: 2'3'cGAMP 15 μM, 24 h, luciferase reporter activity. The format is cell-based. The method, boiled down:
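THP1-Dual KO-IFNAR2 cells (2×10E6 cells/mL) exposed to compounds at 0.0017-100 μM final, then stimulated with 2′3′cGAMP (15 μM final) delivered by Lipofectamine 2000 transfection. After 24 h at 37° C, secreted luciferase in supernatant read by QUANTI-Luc luminescence; EC50 calculated.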
On the technique in general: Reporter assays use an easily measured gene product as a stand-in for the process of interest.

SMILES strings stand for the structures. pEC50: −log10 of the molar value.

T1 sequence (Q86WV6 whole entry R71H/G230A/H232R/R293Q): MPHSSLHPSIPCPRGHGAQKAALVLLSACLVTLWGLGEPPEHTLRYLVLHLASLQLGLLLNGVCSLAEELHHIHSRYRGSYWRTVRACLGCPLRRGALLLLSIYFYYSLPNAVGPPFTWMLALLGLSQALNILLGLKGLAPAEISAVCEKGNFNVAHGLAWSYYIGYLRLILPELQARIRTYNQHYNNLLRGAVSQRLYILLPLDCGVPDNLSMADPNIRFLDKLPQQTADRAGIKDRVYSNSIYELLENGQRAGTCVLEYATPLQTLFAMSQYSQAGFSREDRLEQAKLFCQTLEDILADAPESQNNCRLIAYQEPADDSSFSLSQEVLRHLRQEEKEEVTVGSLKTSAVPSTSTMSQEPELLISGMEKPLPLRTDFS

A word on the pEC50: it is the EC50 on a negative log10 scale, so that one unit is a factor of ten. The low end stands for a large EC50, the high end for a small EC50. The compound `O=C(Nc1cnc(N2CCN(CC(F)F)CC2)c(Cl)c1)Nc1c[nH]c2ccc(Cl)cc12` [Compound 261, 1-(5-chloro-1H-indol-3-yl)-3-(5-chloro-6-(4-(2,2-difluoroethyl)piperazin-1-yl)pyridin-3-yl)urea] showed a pEC50 of 6.70 to 7.40.
In turn, `O=C(Nc1cnc(N2CCN(CC(F)(F)F)CC2)c(F)c1)Nc1c[nH]c2cc(F)c(F)cc12` [Compound 251, 1-(5,6-difluoro-1H-indol-3-yl)-3-(5-fluoro-6-(4-(2,2,2-trifluoroethyl)piperazin-1-yl)pyridin-3-yl)urea] had a pEC50 of 6.70 to 7.40.
`O=C(Nc1ccc(C2CCC(F)(F)CC2)nc1)Nc1c[nH]c2ccc(I)cc12` [Compound 192, 1-(6-(4,4-difluorocyclohexyl)pyridin-3-yl)-3-(5-iodo-1H-indol-3-yl)urea] showed a negative logarithm of the EC50 (pEC50) of 6.70 to 7.40.
Compound `Cc1cc(NC(=O)Nc2c[nH]c3ccccc23)cnc1N1CCC2(CC1)CC2` [Compound 198, 1-(1H-indol-3-yl)-3-(5-methyl-6-(6-azaspiro[2.5]octan-6-yl)pyridin-3-yl)urea] gave a negative-log EC50 (pEC50) of 6.70 to 7.40.
The value for `O=C(Nc1ccc(C2CCC(F)(F)CC2)nc1)Nc1c[nH]c2ccccc12` [Compound 190, 1-(6-(4,4-difluorocyclohexyl)pyridin-3-yl)-3-(1H-indol-3-yl)urea] was 6.00 to 6.70.

For the origin of these results see patent publication US20230127839A1, “COMPOUNDS AND COMPOSITIONS FOR TREATING CONDITIONS ASSOCIATED WITH STING ACTIVITY” (IFM Due, Inc., priority 2019, published 2023).
